Values quoted from earlier work as cited in patent US20250235578A1, “WOUND DRESSING COMPOSITIONS AND METHODS OF USE AND PREPARATION THEROF” (T.J.Smith and Nephew,Limited, priority 2021, published 2025).

Settings: under normal conditions

For `[N]=O` [NO, nitric oxide], the “maximum solubility in water” value is given as “approximately 1.7 mM”.
